In patent publication US20250312310A1, “Beta2-adrenergic receptor antagonists for use in treating diabetes or obesity” (NovelYeast bv, priority 2021, published 2025):
Read-outs that look alike come from different tables or passages of the source.

How the values were obtained:
human β2-AR [1] = molecular target: T1, human β2-AR (Homo sapiens, UniProt P07550); assay: Calcium response (Fluo-4) in Flp-In-293 cells stably transfected with ADRB2 and GNA15; assay type: cell-based; conditions: for Activation of the β2-AR by sugars (calcium response): sugars at 50 mM, listed in order of decreasing intensity
Protocol: Assessment of β2-AR responses in cultured mammalian cells. […] The cell line expressing both β2-AR and Gα16 was selected in two successive transfection steps. First, Flp-In-293 cells were co-transfected with pMET7-ADRB2-FRT and pOG44. After Flp recombinase-assisted stable integration, an isogenic cell pool expressing the β2-AR was selected in hygromycin-containing medium (100 μg/ml). Second, the isogenic cell pool was cotransfected with p-GNA15 and pIRES-Puro2 (Clontech) in a 5:1 ratio, followed by selection of single clones in medium containing puromycin (0.8 μg/ml). Flp-In-293 cells were maintained in DMEM medium (Gibco), containing penicillin/streptomycin (Sigma) and fetal bovine serum (Sigma) (10%). Hygromycin (100 μg/mL) was added for cells containing the ADRB2 construct, and puromycin (1 μg/mL) was added for the cells containing the GNA15 construct. The Flp-In-293 cells were transferred for β2-AR assays to clear- and flat-bottom 96-well plates in DMEM (Gibco) containing dialyzed fetal bovine serum (Sigma). The plates were coated with fibronectin (Sigma). For that purpose, the fibronectin solution was diluted 40 times in PBS, added in the plate wells (60 μL), and removed again after incubation for 1 h, after which the plates were allowed to dry for 1 h. The Fluo-4 NW kit (Invitrogen) was used for detection of calcium signals following the manufacturer's protocol. All compounds tested were dissolved in HBSS (Sigma) at 37° C. Adrenergic antagonists (Sigma) were always added together with the Fluo4 compound, 50 min before addition of agonist. Agonists were added just prior to the actual measurement of the calcium signals generated. The Flexstation II apparatus (Molecular Devices) was used to perform calcium measurements. After overnight growth of the cells in transfer medium in the aforesaid multiwell-96 plates, the medium was removed, the cells incubated with 100 μL of the loading dye solution (Fluo-4), the plates covered with aluminum foil, and incubated at 37° C. for 30-50 min.

Caco-2 cells = assay: Caco-2 permeability assay; assay type: in vitro ADME, human
Source text: (§1) Caco-2 cell permeability data of compound CD3-403 (apical to basal (A-B) and basal to apical (B-A), measured at pH 7.4 in both apical and basal compartment)

[2] = Caco-2 permeability assay; assay type: in vitro ADME, human; conditions: human; for Papp A→B / Papp B→A: Caco-2, pH 7.4; for Papp at 1 μM: summary, read-out: Permeability in Caco2 assay; for recovery at 1 μM: Caco-2, pH 7.4, Caco-2, 1.0 μM
Source text: as §1

[3] = system: everted sacs prepared from rat intestine; assay: Glucose uptake into everted sacs of rat intestine; conditions: for Effect on basal glucose transport: ICI 118,551 10 μM with 2.5 mM glucose; for Effect on basal glucose transport / Effect on epinephrine stimulation of glucose uptake: colchicine 5 μM; for Effect on epinephrine stimulation of glucose uptake: epinephrine 10 μM, mPKI 1 μM, phlorizin 100 μM
Protocol: Rats weighing around 150 g were fasted overnight before the experiment, and euthanized by cervical dislocation on the day of the experiment. The abdomen was opened by a midline incision, and a segment of around 35 cm of proximal intestine was isolated. The intestinal segment was rinsed with ice-cold Ringer solution (composition (mM): 140 NaCl, 5 KCl, 1 MgCl2, 2 CaCl2, 10 HEPES, 10 TRIS, gassed with 95% O2 and 5% CO2, pH 7.4), and 4-7 everted sacs were prepared, each approximately 3 cm in length, by tying off the ends of the intestinal segments with threads (46). The sacs were filled with Ringer solution containing 5 mM mannitol (Sigma Aldrich) (to maintain osmotic balance) and L-glutamine (2 mM) (Sigma Aldrich) (as an energy source). Each everted sac was transferred to a separate glass beaker containing 50 mL continuously oxygenated Ringer solution with L-glutamine (2 mM), and maintained in a water bath at 37° C. Then, epinephrine 10 μM (Sigma Aldrich), mannose 5 mM (Sigma Aldrich), ICI 118,551 10 μM (Sigma Aldrich), phlorizin 100 μM (Sigma Aldrich), LX4211 2 μM (MedKoo Biosciences, Inc. USA.) or Ringer solution were added to the respective beaker for a 15-min pre-incubation (concentrations indicate final concentrations of the compounds). For the sacs treated with ICI 118,551, phlorizin or LX 4211, the inhibitors were added before mannose or epinephrine. After pre-incubation, 5 mM glucose, or 2.5 mM glucose for the ICI 118,551 control experiment, was added to the external buffer to initiate glucose transport. […] These samples were analyzed using a glucose assay kit based on glucose oxidase (Sigma Aldrich, for details, see below). […] Also for colchicine, a TRIS-free Ringer solution was used, as TRIS interferes with colchicine activity (130). […] We noticed that it was important to take certain precautions during these experiments: the intestine was never allowed to overfill and be stretched while rinsing the intestinal lumen at the time of isolation and filling the everted sac with Ringer solution. Trapping air bubbles inside the everted sac was avoided. Also, the regions of the intestine where mucus was still present were not used for preparing everted sacs. […] The glucose concentration of the samples was assayed by a glucose assay kit (Sigma Aldrich, GOD/POD method). The assay procedure recommended by the kit was modified for small sample volumes as follows. Fifty μL of sample was transferred to a well of a 96-well plate, and at time zero, the reaction was started by adding 100 μL of assay reagent to the first well, and mixing. Each well was allowed to react for exactly 30 min at 37° C. The reaction was stopped by adding 100 μL of 12 N H2SO4 (Merck) into each well, and carefully mixing. The absorbance was measured at 540 nm with a plate reader (Tecan 200).

human β2-AR [4] = molecular target: T1, human β2-AR; assay: Competitive radioligand binding assay with 125I-cyanopindolol on membrane vesicles; parameters: purchased PerkinElmer RBHBE2M; conditions: maximal increase with increasing concentrations
Protocol: TRIS-HCl buffer containing MgCl2 and EGTA was used as incubation and assay buffer, while TRIS-HCl buffer was used as wash buffer. All buffers were cooled and all further steps performed on ice. Membranes were diluted 150 times in assay buffer. […] The mixtures were incubated for 1 h at ambient temperature, and subsequently filtered using a vacuum pump over GF/C filters (Whatman), pre-soaked in 0.5% polyethyleneimine.

[5] = In vivo oral glucose tolerance test; parameters: species or system rat; conditions: rats
Protocol: Animals and diet. All the experiments were approved by the ethical committee on animal experimentation of the KU Leuven. Wistar rats (Harlan Netherlands B.V.) were maintained on a 12 h light-12 h dark cycle, and fed with standard rat food chow and water ad libitum. The oral glucose tolerance test was performed on normal rats weighing around 250 g, which were fasted for 16 h before the test. Blood was sampled by tail vein puncture, and the blood glucose level was measured by glucometer (Verio OneTouch glucometer). Rats were divided in four groups: one with glucose 2 g/kg or glucose 4 g/kg (Sigma Aldrich), both in the presence or absence of CD3-403. […] Glucose or glucose along with CD3-403, dissolved in 0.9% saline, was administered to rats by oral gavage in the respective groups. […] All experiments were conducted around the same time in the morning.

[6] = second CD3 compounds overview table, epinephrine 5 nM, read-out: IC50
[7] = concentration response curve, 1st experiment, read-out: IC50 (nM) 1st experiment
[8] = concentration response curve, 2nd experiment, read-out: IC50 (nM) 2nd experiment
[9] = summary of screening, read-out: IC50
[10] = Caco-2, test concentration 1.0E−06 M
[11] = Caco-2, 1.0 μM, pH 7.4 in both compartments

Compound: maltotriose
- EC50 (human β2-AR [1]; calcium response (FIG. 2d)): ~10000 µM
- Activation of the β2-AR by sugars (calcium response) (human β2-AR [1]): activated

Compound: COc1ccc(OC)c(C(O)C(C)NC(C)(C)C)c1 (stereo not shown) [Butoxamine, reference compound]
- IC50 (human β2-AR [1]; [6]): 14300 nM

Compound: CC(C)NC[C@@H](O)COc1cccc2[nH]cc(CC(=O)N(C)C)c12 [CD3-T3]
- IC50 (human β2-AR [1]; [7]): 66 nM
- IC50 (human β2-AR [1]; [8]): 78 nM
- IC50 (human β2-AR [1]; [9]): 78 nM
- MeanRecovery (A-B) (Caco-2 cells; test concentration 1.0E−06 M): 76%
- MeanRecovery (B-A) (Caco-2 cells; test concentration 1.0E−06 M): 90%
- Papp A→B ([2]; test concentration 1.0E−06 M): 1 nm/s
- Papp B→A ([2]; test concentration 1.0E−06 M): 32 nm/s
- Papp at 1 μM ([2]; Caco-2): 1 nm/s
- efflux ratio at 1 µM [2, 10]: 32

Compound: COc1cc2c(c(OC)c1OC)-c1ccc(OC)c(=O)cc1[C@@H](NC(C)=O)CC2 [Colchicine]
- Effect on basal glucose transport [3]: not basal glucose uptake
- Effect on epinephrine stimulation of glucose uptake ([3]; ICI 118,551 10 μM): completely blocked

Compound: [Cl-].[Na+] [NaCl]
- Increase of 125I-cyanopindolol binding (human β2-AR [4]): roughly 35%

Compound: CC(C)(C)NCC(O)COc1cccc2[nH]cc(CC(=O)NN)c12 (racemic) [CD3 X]
- IC50 (human β2-AR [1]; [9]): 70 nM
- Permeability class in Caco2 assay (Caco-2 cells; summary): low permeability

Compound: Cc1ccc(OCC(O)C(C)NC(C)C)c2c1CCC2 (stereo not shown) [ICI 118,551]
- Effect on basal glucose transport [3]: did not have any effect
- Inhibition of the stimulation of glucose transport by mannose ([3]; LX4211 2 μM (also inhibits glucose transport itself), ICI 118,551 10 μM): abolished
- Effect on epinephrine stimulation of glucose uptake ([3]; ICI 118,551 10 μM): completely prevented

Compound: O=C[C@H](O)[C@@H](O)[C@H](O)CO [xylose]
- Activation of the β2-AR by sugars (calcium response) (human β2-AR [1]): activated

Compound: Cc1c[nH]c2cccc(OC[C@H](O)CNC(C)(C)C)c12 [CD3-T1]
- IC50 (human β2-AR [1]; [7]): 6 nM
- IC50 (human β2-AR [1]; [8]): 0.6 nM
- IC50 (human β2-AR [1]; [9]): 6 nM
- MeanRecovery (A-B) (Caco-2 cells; test concentration 1.0E−06 M): 71%
- MeanRecovery (B-A) (Caco-2 cells; test concentration 1.0E−06 M): 87%
- Papp A→B ([2]; test concentration 1.0E−06 M): 547 nm/s
- Papp B→A ([2]; test concentration 1.0E−06 M): 178 nm/s
- Papp at 1 μM ([2]; Caco-2): 547 nm/s
- efflux ratio at 1 µM [2, 10]: 0.325

Compound: CC(C)(C)NC[C@@H](O)COc1cccc2[nH]cc(CC(N)=O)c12 [CD3-403]
- Area under the curve (AUC) of the glucose increase ([5]; glucose 2 g/kg, 100% as baseline, mean±SD, control 8056±2990): 5907±2195
- Increase in blood glucose level after oral glucose bolus ([5]; oral gavage, glucose 2 g/kg, 5 μM (0.05 mg/kg) CD3-403): reduced increase in blood glucose level, which was significant at 60 min
- Blood glucose concentration after oral glucose bolus ([5]; oral gavage, glucose 4 g/kg, 5 μM (0.05 mg/kg) CD3-403): trend of decreased glucose concentration
- IC50 (human β2-AR [1]; 5 nM epinephrine, read-out: IC50 of the calcium response elicited by 5 nM epinephrine): 46 nM
- IC50 (human β2-AR [1]; [7]): 221 nM
- IC50 (human β2-AR [1]; [8]): 46 nM
- IC50 (human β2-AR [1]; concentration response curve, old stock, read-out: IC50 (nM) old stock): 40 nM
- % INHIBITION (human β2-AR [1]; second CD3 compounds overview table, epinephrine 5 nM): 97%
- IC50 (human β2-AR [1]; [6]): 40 nM
- IC50 (human β2-AR [1]; [9]): 46 nM
- Cell permeability (Caco-2 cells; assessed by a Caco-2 permeability assay): very low cell permeability
- Efflux (Caco-2 cells; test concentration 1.0E−06 M): 3.25
- MeanRecovery (A-B) (Caco-2 cells; test concentration 1.0E−06 M): 83%
- MeanRecovery (B-A) (Caco-2 cells; test concentration 1.0E−06 M): 94%
- recovery at 1 μM ([2]; pH 7.4 in both compartments, read-out: Mean Recovery (A-B)): 83%
- recovery at 1 μM ([2]; pH 7.4 in both compartments, read-out: Mean Recovery (B-A)): 94%
- Papp A→B ([2]; test concentration 1.0E−06 M): 4 nm/s
- Papp B→A ([2]; test concentration 1.0E−06 M): 13 nm/s
- Papp at 1 μM ([2]; Caco-2): 4 nm/s
- efflux ratio at 1 µM ([2]; Caco-2, 1.0 μM, B-A/A-B): 3.25
- Papp A→B at 1 μM [2, 11]: 4 nm/s
- Papp B→A at 1 μM [2, 11]: 13 nm/s
